PubChem BioAssay (NCI)
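Each compound was tested at five concentrations against cells in 96-well plates for 48 hours. GI50 is the concentration that inhibits growth by half. TGI: total growth inhibition.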

What was measured:
Assay in all cases: NCI tumour cell line growth inhibition, 48 h
A549 NSCLC = test system: A549 NSCLC
OVCAR-4 ovarian = test system: OVCAR-4 ovarian
OVCAR-8 ovarian = test system: OVCAR-8 ovarian
CAKI-1 renal = test system: CAKI-1 renal
SN12C renal = test system: SN12C renal
SK-OV-3 ovarian = test system: SK-OV-3 ovarian
RXF 393 renal = test system: RXF 393 renal
MALME-3M melanoma = test system: MALME-3M melanoma
786-0 renal = test system: 786-0 renal
LOX IMVI melanoma = test system: LOX IMVI melanoma
NCI-H23 lung = test system: NCI-H23 lung
COLO 205 colon = test system: COLO 205 colon
TK-10 renal = test system: TK-10 renal
EKVX NSCLC = test system: EKVX NSCLC
SF-295 CNS = test system: SF-295 CNS
UO-31 renal = test system: UO-31 renal
U251 CNS = test system: U251 CNS
SK-MEL-5 melanoma = test system: SK-MEL-5 melanoma
HCT-15 colon = test system: HCT-15 colon
UACC-62 melanoma = test system: UACC-62 melanoma
UACC-257 melanoma = test system: UACC-257 melanoma
T-47D breast = test system: T-47D breast
HS 578T breast = test system: HS 578T breast
SF-268 CNS = test system: SF-268 CNS
SW-620 colon = test system: SW-620 colon
NCI/ADR-RES ovarian = test system: NCI/ADR-RES ovarian
HL-60(TB) leukemia = test system: HL-60(TB) leukemia
HCT-116 colon = test system: HCT-116 colon
IGROV1 ovarian = test system: IGROV1 ovarian
SNB-75 CNS = test system: SNB-75 CNS
MOLT-4 leukemia = test system: MOLT-4 leukemia
M14 melanoma = test system: M14 melanoma
DU-145 prostate = test system: DU-145 prostate
PC-3 prostate = test system: PC-3 prostate
SK-MEL-28 melanoma = test system: SK-MEL-28 melanoma
RPMI-8226 leukemia = test system: RPMI-8226 leukemia
SR leukemia = test system: SR leukemia
MDA-MB-231 breast = test system: MDA-MB-231 breast
HT29 colon = test system: HT29 colon
SNB-19 CNS = test system: SNB-19 CNS
OVCAR-3 ovarian = test system: OVCAR-3 ovarian
SK-MEL-2 melanoma = test system: SK-MEL-2 melanoma
NCI-H460 lung = test system: NCI-H460 lung
BT-549 breast = test system: BT-549 breast
NCI-H522 lung = test system: NCI-H522 lung
A498 renal = test system: A498 renal
SF-539 CNS = test system: SF-539 CNS
ACHN renal = test system: ACHN renal
MCF7 breast = test system: MCF7 breast
KM12 colon = test system: KM12 colon
HCC-2998 colon = test system: HCC-2998 colon
HOP-62 NSCLC = test system: HOP-62 NSCLC
NCI-H226 lung = test system: NCI-H226 lung
CCRF-CEM leukemia = test system: CCRF-CEM leukemia
OVCAR-5 ovarian = test system: OVCAR-5 ovarian
HOP-92 NSCLC = test system: HOP-92 NSCLC
K-562 leukemia = test system: K-562 leukemia
MDA-MB-435 = test system: MDA-MB-435

O=c1nc(Nc2ccc([N+](=O)[O-])cc2O)sc2ccccc12
GI50 (A549 NSCLC): 4.58 µM | TGI (A549 NSCLC): > 16.7 µM | GI50 (OVCAR-4 ovarian): 4.4 µM | TGI (OVCAR-4 ovarian): > 16.7 µM | GI50 (OVCAR-8 ovarian): 3.83 µM | TGI (OVCAR-8 ovarian): > 16.7 µM | GI50 (CAKI-1 renal): 659 nM | TGI (CAKI-1 renal): > 16.7 µM | GI50 (SN12C renal): 3.15 µM | TGI (SN12C renal): > 16.7 µM | GI50 (SK-OV-3 ovarian): 1310 nM | TGI (SK-OV-3 ovarian): > 16.7 µM | GI50 (RXF 393 renal): 437 nM | TGI (RXF 393 renal): 2330 nM | GI50 (MALME-3M melanoma): 4.09 µM | TGI (MALME-3M melanoma): > 16.7 µM | GI50 (786-0 renal): 6.06 µM | TGI (786-0 renal): > 16.7 µM | GI50 (LOX IMVI melanoma): 1140 nM | TGI (LOX IMVI melanoma): > 16.7 µM | GI50 (NCI-H23 lung): 1100 nM | TGI (NCI-H23 lung): > 16.7 µM | GI50 (COLO 205 colon): > 16.7 µM | TGI (COLO 205 colon): > 16.7 µM | GI50 (TK-10 renal): > 16.7 µM | TGI (TK-10 renal): > 16.7 µM | GI50 (EKVX NSCLC): 4.05 µM | TGI (EKVX NSCLC): > 16.7 µM | GI50 (SF-295 CNS): 1110 nM | TGI (SF-295 CNS): > 16.7 µM | GI50 (UO-31 renal): 853 nM | TGI (UO-31 renal): > 16.7 µM | GI50 (U251 CNS): 1060 nM | TGI (U251 CNS): > 16.7 µM | GI50 (SK-MEL-5 melanoma): 858 nM | TGI (SK-MEL-5 melanoma): 5.41 µM | GI50 (HCT-15 colon): 756 nM | TGI (HCT-15 colon): > 16.7 µM | GI50 (UACC-62 melanoma): 880 nM | TGI (UACC-62 melanoma): > 16.7 µM | GI50 (UACC-257 melanoma): 1660 nM | TGI (UACC-257 melanoma): > 16.7 µM | GI50 (T-47D breast): 4.3 µM | TGI (T-47D breast): > 16.7 µM | GI50 (HS 578T breast): 576 nM | TGI (HS 578T breast): > 16.7 µM | GI50 (SF-268 CNS): 1310 nM | TGI (SF-268 CNS): > 16.7 µM | GI50 (SW-620 colon): 955 nM | TGI (SW-620 colon): > 16.7 µM | GI50 (NCI/ADR-RES ovarian): 532 nM | TGI (NCI/ADR-RES ovarian): 4.47 µM | GI50 (HL-60(TB) leukemia): 662 nM | TGI (HL-60(TB) leukemia): 3.69 µM | GI50 (HCT-116 colon): 882 nM | TGI (HCT-116 colon): > 16.7 µM | GI50 (IGROV1 ovarian): 1110 nM | TGI (IGROV1 ovarian): > 16.7 µM | GI50 (SNB-75 CNS): 307 nM | TGI (SNB-75 CNS): 1200 nM | GI50 (MOLT-4 leukemia): 3.73 µM | TGI (MOLT-4 leukemia): > 16.7 µM | GI50 (M14 melanoma): 648 nM | TGI (M14 melanoma): > 16.7 µM | GI50 (DU-145 prostate): 5.61 µM | TGI (DU-145 prostate): > 16.7 µM | GI50 (PC-3 prostate): 4.92 µM | TGI (PC-3 prostate): > 16.7 µM | GI50 (SK-MEL-28 melanoma): 4.22 µM | TGI (SK-MEL-28 melanoma): > 16.7 µM | GI50 (RPMI-8226 leukemia): 737 nM | TGI (RPMI-8226 leukemia): 10.8 µM | GI50 (SR leukemia): 462 nM | TGI (SR leukemia): > 16.7 µM | GI50 (MDA-MB-231 breast): 7.41 µM | TGI (MDA-MB-231 breast): > 16.7 µM | GI50 (HT29 colon): > 16.7 µM | TGI (HT29 colon): > 16.7 µM | GI50 (SNB-19 CNS): 949 nM | TGI (SNB-19 CNS): > 16.7 µM | GI50 (OVCAR-3 ovarian): 719 nM | TGI (OVCAR-3 ovarian): > 16.7 µM | GI50 (SK-MEL-2 melanoma): 1180 nM | TGI (SK-MEL-2 melanoma): > 16.7 µM | GI50 (NCI-H460 lung): 670 nM | TGI (NCI-H460 lung): > 16.7 µM | GI50 (BT-549 breast): 885 nM | TGI (BT-549 breast): > 16.7 µM | GI50 (NCI-H522 lung): 786 nM | TGI (NCI-H522 lung): 10.4 µM | GI50 (A498 renal): 574 nM | TGI (A498 renal): 2300 nM | GI50 (SF-539 CNS): 696 nM | TGI (SF-539 CNS): 8.94 µM | GI50 (ACHN renal): 2160 nM | TGI (ACHN renal): > 16.7 µM | GI50 (MCF7 breast): 637 nM | TGI (MCF7 breast): > 16.7 µM | GI50 (KM12 colon): 1040 nM | TGI (KM12 colon): > 16.7 µM | GI50 (HCC-2998 colon): 4.39 µM | TGI (HCC-2998 colon): > 16.7 µM | GI50 (HOP-62 NSCLC): 917 nM | TGI (HOP-62 NSCLC): > 16.7 µM | GI50 (NCI-H226 lung): 783 nM | TGI (NCI-H226 lung): > 16.7 µM | GI50 (CCRF-CEM leukemia): 4.47 µM | TGI (CCRF-CEM leukemia): > 16.7 µM | GI50 (OVCAR-5 ovarian): 9.42 µM | TGI (OVCAR-5 ovarian): > 16.7 µM | GI50 (HOP-92 NSCLC): 2300 nM | TGI (HOP-92 NSCLC): 15.9 µM | GI50 (K-562 leukemia): 557 nM | TGI (K-562 leukemia): > 16.7 µM | GI50 (MDA-MB-435): 466 nM | TGI (MDA-MB-435): > 16.7 µM
